Test results reported in US8957022B2, “Multimeric tie 2 agonists and uses thereof in stimulating angiogenesis” (Sunnybrook Health Sciences Centre, priority 2006, dated 2015).

Legend:
CD1 mice = assay: Matrigel plug angiogenesis assay; type: in vivo, mouse; settings: for Vessel growth in plugs (confocal analysis): FITC lectin
Procedure: To further examine the in vivo angiogenic potential of Vasculotide, a Matrigel assay was performed. More specifically, growth factor reduced Matrigel (BD Biosciences) was impregnated with either clustered Vasculotide or one of several different control factors. These Matrigel samples were injected subcutaneously into the flank region of 3 month old CD1 mice. 14 days post implantation and immediately prior to sacrifice, FITC lectin (100 μg) was injected IV and allowed to circulate for 10 minutes, to facilitate vessel identification and quantification. Plugs were surgically resected and fixed in 4% paraformaldehyde (PFA) for 16 h. Images of vascular topology were taken using a Zeiss dissecting microscope at 4× magnification. Upon fixing, all plugs were whole mount stained with anti-Sma1-Cy3. Plugs were analyzed on a Zeiss Axiovert 100 M confocal microscope (Carl Zeiss) for three dimensional image reconstruction and photos were processed using LSM Image Browser and Adobe Photoshop 7.0. Morphometric quantification of vessel characteristics was performed by skeletonizing confocal image projections with Image Processing Tool Kit 5.0 (IPTK 5.0). Student's t test was used to test the statistical significance with a 95% confidence interval. All experiments were performed with three replicates each, with at least 5 random image stacks.
To more fully address and assign quantitative vessel parameters to the different treatment groups, the plugs were fixed and interrogated with laser confocal microscopy analysis combined with post processing image analysis (Image Processing Tool Kit 5.0, Reindeer Graphics, N.C.). Vessel parameters, including length, number and branch points (nodes) were quantified on at least six representative fields. Statistical analysis was performed by way of unpaired Student's t test. Bar graphs of the number of vessels, vessel length and number of nodes, for each treatment group, are shown in FIGS. 3A, 3B and 3C, respectively. It is noted that poor perfusion of FITC-lecithin into mice harboring 20 nM clustered Vasculotide plus VEGF plugs prevented statistical analysis, therefore bars are the mean of two separate fields. All other bars shown represent mean+/−SD.
Ang 1 has been reported to potentiate the recruitment of myogenic support cells (Suri, C. et al. (1996) Cell 87:1171-1180) and inhibit VEGF induced vascular permeability through mechanisms that are not well understood (Thurston, G. et al. (2000) Nat. Med. 6:460-463). To determine if Vasculotide, like Ang 1, was capable of initiating pericyte recruitment, whole mount immunofluorescence was performed against smooth muscle actin 1 (Sma1). […] Sma 1 staining was tightly associated with the exterior of the vessels and was enriched on larger vessels.

HUVEC [1] = assay: Serum withdrawal-induced cell death, Cell Death ELISA; type: cell-based, human; settings: F12 plus 0.1% FBS, 16 hours; clustered Vasculotide at 500 pM (p=0.002) vs non-treated cells
Procedure: Based on the fact that clustered Vasculotide strongly activates the anti apoptotic protein AKT (see Example 3), the ability of Vasculotide to protect ECs from serum withdrawal-induced death was examined. To do so, HUVEC were maintained in F12 media plus 0.1% FBS for 16 hours in the presence of various concentrations of unclustered or clustered Vasculotide, followed by analysis of cell apoptosis via cell death ELISA. Analysis of apoptosis was performed using Cell Death ELISA Plus (Roche) according to manufacturers' specifications. The results are shown in FIG. 2A, in which values were normalized to basal levels of cell death for HUVECs maintained in full 10% FBS, growth factor supplemented F12 media. The results shown represent the mean of three replicates plus or minus 1 SD. Student's T-test was used for statistical analysis with P value indicated.

Tie 2 = Tie 2 (Homo sapiens, UniProt Q02763); assay: Tie 2 activation (pY992 Tie 2 immunoblot) in HUVEC; type: cell-based; parameters: downstream signalling pathways in human umbilical vein endothelial cells (HUVEC) (Cambrex, N.J.); host or cells: HUVEC, passage 3-9
Sequence of Tie 2 (Q02763 23-1124): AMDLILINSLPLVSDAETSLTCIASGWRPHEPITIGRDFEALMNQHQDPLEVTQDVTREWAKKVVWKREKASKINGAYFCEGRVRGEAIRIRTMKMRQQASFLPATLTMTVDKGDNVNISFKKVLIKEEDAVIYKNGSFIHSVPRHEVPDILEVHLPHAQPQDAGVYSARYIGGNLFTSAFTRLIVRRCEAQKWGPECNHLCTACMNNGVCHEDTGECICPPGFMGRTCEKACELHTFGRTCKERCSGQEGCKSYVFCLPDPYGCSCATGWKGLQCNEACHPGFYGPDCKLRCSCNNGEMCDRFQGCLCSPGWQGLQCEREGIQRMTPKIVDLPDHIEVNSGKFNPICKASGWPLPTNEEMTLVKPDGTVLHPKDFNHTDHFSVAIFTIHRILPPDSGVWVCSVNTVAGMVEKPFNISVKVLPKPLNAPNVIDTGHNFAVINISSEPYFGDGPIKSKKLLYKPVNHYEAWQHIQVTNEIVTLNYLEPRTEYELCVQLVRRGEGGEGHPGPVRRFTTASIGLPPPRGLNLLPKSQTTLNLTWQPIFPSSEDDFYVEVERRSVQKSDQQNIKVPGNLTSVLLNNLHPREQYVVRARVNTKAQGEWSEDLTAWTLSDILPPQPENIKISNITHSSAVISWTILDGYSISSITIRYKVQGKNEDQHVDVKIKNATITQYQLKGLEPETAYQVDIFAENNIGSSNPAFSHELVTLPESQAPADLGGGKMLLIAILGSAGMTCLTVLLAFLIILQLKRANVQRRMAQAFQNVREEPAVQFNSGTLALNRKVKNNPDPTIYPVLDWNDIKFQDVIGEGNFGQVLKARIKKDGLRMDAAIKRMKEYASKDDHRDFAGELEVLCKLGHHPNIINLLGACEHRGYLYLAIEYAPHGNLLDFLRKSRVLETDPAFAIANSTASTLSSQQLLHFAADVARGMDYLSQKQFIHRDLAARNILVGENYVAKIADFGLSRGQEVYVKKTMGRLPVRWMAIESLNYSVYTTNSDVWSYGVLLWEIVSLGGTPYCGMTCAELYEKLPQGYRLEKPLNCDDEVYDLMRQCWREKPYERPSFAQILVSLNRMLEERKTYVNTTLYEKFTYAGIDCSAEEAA
Procedure: Having established that Vasculotide was able to bind Tie 2 (see Example 2), the ability of Vasculotide, when clustered with avidin in a 4:1 ratio (Vasculotide:avidin), to activate the Tie 2 receptor was tested by examining several well established downstream signalling pathways in human umbilical vein endothelial cells (HUVEC) (Cambrex, N.J.). Such signalling pathways are described in, for example, Kim, I. et al. (2000) Circ. Res. 9:952-959; Fujikawa, K. et al. (1999) Exp. Cell. Res. 2:663-672; Babaei, S. et al. (2003) Am. J. Pathol. 6:1927-1936.
HUVEC were grown on 6-well or 10 cm plates (Nunc) coated with gelatin (Sigma). HUVEC were cultured in F12 growth medium containing 10% fetal bovine serum (FBS), 0.1 mg/ml heparin sulphate, 1× penicillin, 1× streptomycin, 1× glutamine, VEGF 10 ng/ml, EGF 10 ng/ml, bFGF 5 ng/ml. All HUVEC were used between passage 3-9.
HUVEC were stimulated with one of either Ang 1 (R&D Systems), Vasculotide, avidin or clustered Vasculotide (preclustered with a 4:1 molar ratio of peptide:avidin in PBS for 2 hours at 4° C.) at various doses. Stimulations with Vasculotide were performed in full serum containing growth media for 15 minutes unless otherwise indicated. Cell lysate preparations and immunoblot analysis were performed by standard methods. Antibodies used for immunoblotting (in this and/or subsequent Examples) were monoclonal anti Tie 2 (Pharminogen), polyclonal anti pY992 Tie 2, (Cell Signaling Technology), polyclonal anti MAPK (Cell Signaling Technology), monoclonal anti phospho MAPK (Cell Signaling Technology), polyclonal anti AKT (Cell Signaling Technology), polyclonal anti pS473 AKT (Cell Signaling Technology), monoclonal anti pS1177 eNOS (BD Biosciences), polyclonal anti pY397 FAK (Biosource), polyclonal anti FAK (Santa Cruz), polyclonal anti smooth muscle actin-Cy3 direct conjugate (Dako), polyclonal anti PECAM (Pharminogen) and polyclonal anti smooth muscle actin (Sigma).
To examine Tie 2 activation kinetics, HUVEC were stimulated with native Ang 1 or clustered Vasculotide for various times. Stimulation was performed in 10% FBS. […] Overall, activation of the receptor by either Ang 1 or clustered Vasculotide followed a very similar time course with phosphorylation returning to almost basal levels sometime after 2 hours.

HUVEC [2] = assay: Modified Boyden chamber migration assay; type: cell-based, human; settings: for Chemotactic cell migration versus no treatment: 4 hours, clustered Vasculotide 2 nM and 10 nM
Procedure: To test if Vasculotide, like Ang 1, was capable of promoting these processes, the effect of Vasculotide on EC migration was tested using a modified Boyden chamber assay. HUVEC were seeded at a density of 8.4×10^4 cells in 500 μl of F12 growth media plus 0.1% FBS in the upper chamber of an 8 μm pore size modified Boyden chamber (Falcon). 500 μl of F12 media plus 0.1% FBS plus various growth factors (Ang 1 (R& D Systems), unclustered or clustered Vasculotide, VEGF (R&D Systems) or clustered Vasculotide in combination with VEGF) or controls were placed in the bottom chamber. Cells were allowed to migrate for 4 hours in a 37° C., 5% CO2 incubator. Nonmigrating cells were scraped off, and filters were fixed in 100% methanol for 5 minutes, stained with Harris' Hematoxylin (BDH) for 10 minutes and washed twice with tap water for 3 minutes each. Filters were then mounted using Aquapolymount mounting medium. Cells that had migrated more than 50% of the way through the pore were scored as positive for migration.
Student's t test was used to test the statistical significance with a 95% confidence interval. Stimulations were performed in triplicate and migrating cells in 6 microscopic fields per replicate were counted.

| Substance | Vessel growth in plugs (confocal analysis) (CD1 mice; 14 days post implantation) | Apoptosis / survival after serum withdrawal (HUVEC [1]) | Tie 2 phosphorylation without preclustering (Tie 2; avidin alone and unclustered Vasculotide) | Chemotactic cell migration versus no treatment (HUVEC [2]) | Nature of vessels (arborization, tortuosity) (CD1 mice; 14 days post implantation) | Angiogenic response in the membranous capsule surrounding the plugs (CD1 mice; 14 days post implantation, subcutaneous) | Smooth muscle actin 1 (Sma1) staining, pericyte recruitment (CD1 mice; whole mount immunofluorescence) | Ability to activate Tie 2 phosphorylation, time course, versus Ang 1 (400 ng/ml) (Tie 2; 2 nM, 10% FBS) | Tie 2 receptor activation at high concentration (Tie 2; 50 nM) | Optimal concentration for Tie 2 activation (pY992 Tie 2) (Tie 2; 15 minutes) | Migration compared with VEGF or Ang 1 (HUVEC [2]; VEGF 100 ng/ml, Ang 1 500 ng/ml (FIG. 2B legend)) |
| --- | --- | --- | --- | --- | --- | --- | --- | --- | --- | --- | --- |
| Vasculotide: biotinylated T7 peptide-PEG: Cys-His-His-His-Arg-His-Ser-Phe (SEQ ID NO: 2) conjugated to EZ-link-PEO-maleimide-biotin | no significant vessel growth | no effect on survival | only when preclustered with avidin was Vasculotide able to stimulate Tie 2 phosphorylation | did not promote migration above that seen in the untreated sample | – | – | – | – | – | – | – |
| clustered Vasculotide: Vasculotide clustered with avidin in a 4:1 ratio, an obligate tetrameric compound | robust induction of angiogenesis | statistically significant decrease in apoptosis | – | significant increases in chemotactic cell migration | clear, large, well arborized vessels | distinct and robust angiogenic response | significant increase in overall Sma 1 staining | compared favorably to Ang 1 | not capable of activating Tie 2 receptor activity | 5-10 nM | not significantly different than that seen in samples treated with VEGF or Ang 1 |
